Test results as given in US20180264080A1, “TOPICAL APPLICATIONS OF Kv1.3 CHANNEL BLOCKING PEPTIDES TO TREAT SKIN INFLAMMATION” (KINETA ONE, LLC, priority 2015, published 2018).

Assay: Tissue penetration of topically applied peptide by immunohistochemistry (anti-ShK mAb P3B3) in rat pinna
Type: in vivo
Details: 10 doses, rat pinna sections 48 hours post-challenge (DTH study)
Source text: This example describes the method of detection of toxin-based therapeutic peptides of the disclosure, such as ShK-186 (SEQ ID NO:217) or ShK-198 (SEQ ID NO:210) penetration after topical administration.
Materials: All Bond reagents such Bond HIER 1 (Citrate), Bond HIER 2 (EDTA), Bond Primary antibody diluent, Bond dewax solution, Bond Wash solution, Bond Polymer Refine (DAB) detection rack including peroxide block, polymer/hematoxylin, Bond Alcohol and the Leica Bond Automated Immunostainer were purchased from Leica-microsystems.
ShK specific antibody: Hybridoma fusions were performed using the isolated splenocytes from ShK-186 immunized mice and clones producing specific monoclonal antibodies against ShK-186 and ShK-198 were isolated. These cultures were subjected to a second cloning process using the limited dilution method and selected for stable expression of the specific mAb. Stable clones were expanded, tested for antibody specificity to ShK-186 (and ShK parent) by ELISA, and their isotypes were identified using the Roche Isostrips and confirmed by ELISA. For ELISA testing, culture supernatants were diluted from 1:4-1:256 and the titer was determined to be the last dilution 2 standard deviations above background. Clone P3B3-G11-C12 is purified from hybridoma extinction cultures and concentrated to 1 mg/ml. […]

Substance | Tissue penetration of the peptide into rat pinna (dark staining with ShK specific monoclonal antibody P3B3) (1% solution of ShK-186, topical) | Tissue penetration of the peptide into rat pinna (dark staining with ShK specific monoclonal antibody P3B3) (5% solution of ShK-198, topical)
(L-PhosphoTyr)-AEEAc-RSCIDTIPKSRCTAFQCKHSMKYRLSFCRKTCGTC-amide [ShK-186] | perfuse and extensive penetration | 
(L-Tyr)-AEEAc-RSCIDTIPKSRCTAFQCKHSMKYRLSFCRKTCGTC-amide [ShK-198] |  | perfuse and extensive penetration
